Earlier results as cited in patent US20180193334A1, “PHARMACEUTICAL COMPOSITION OF VORTIOXETINE OR SALT THEREOF, AND PREPARATION METHOD THEREFOR” (Changzhou Fangnan Pharmaceuticals, Ltd., priority 2015, published 2018).
Values after ≈ are worked out from the molar mass of the structure shown.

| solubility in water [mg/mL] | SMILES |
| --- | --- |
| 1.2 | Br.Cc1ccc(Sc2ccccc2N2CCNCC2)c(C)c1 [1-[2-(2,4-methylphenylthio)phenyl] piperazine hydrobromide] |
| 0.1 (≈ 335 µM) | Cc1ccc(Sc2ccccc2N2CCNCC2)c(C)c1 [vortioxetine free base] |
